Test results published in US8518903B2, “Use of toll-like receptor-9 agonists” (University of Pittsburgh—of the Commonwealth System of …, priority 2007, dated 2013).

Experiments:
enterocytes = test: Phosphorylated p38 and ERK in enterocytes exposed to LPS and CpG (Western blot); type: cell-based
Protocol: FIG. 6A-C. LPS signaling is attenuated by the TLR9 ligand CpG-DNA in enterocytes. (A) Comparison of phosphorylated p38 versus total p38 in a negative control, in the presence of 50 μg/ml LPS, in the presence of 50 μg/ml LPS and 10 μM CpG, and in the presence of 10 μM CpG. (B) Comparison of phosphorylated ERK versus total ERK in a negative control, in the presence of LPS, in the presence of LPS and CpG, and in the presence of CpG. (C) Bar graph showing the results of A.
A first series of experiments was designed to study the consequences of the TLR4 activator LPS and a CpG TLR9 agonist on the mediators of activated TLR4, p38 and ERK. Throughout this example section, the CpG used was CpG ODN, 5′-[…]-3′ (SEQ ID NO:6) P38 and ERK are both phosphorylated in their activated form. As shown in FIG. 6A-C, the relative levels of phosphorylated p38 and ERK increased when enterocytes were exposed to LPS.

murine intestinal mucosa = test: LPS-dependent signaling and inflammation in the murine intestinal mucosa in vivo; parameters: species or system mouse; settings: LPS + CpG vs LPS
Description: FIG. 10. Experimental design to assess whether TLR9 activation affects TLR4-mediated inflammation in vivo.
(A). Western blot showing levels of signaling molecules phospho-p38 and phospho-ERK (relative to actin) in mice which were either untreated (Ctrl) or treated with LPS, LPS+CpG, or CpG. (B) Bar graph showing serum levels of the inflammatory cytokine IL-6 in mice which were either untreated (Ctrl) or treated with LPS, LPS+CpG, or CpG.
Experiments were then designed to determine whether the above phenomena, observed in vitro, could be confirmed in vivo (see FIG. 10).

[1] = system: experimental NEC in newborn mice; test: Murine model of necrotizing enterocolitis (formula gavage + hypoxia), CpG treatment; type: in vivo, mouse
Protocol: FIG. 18A-D. Histology of intestines from mice that were (A) breast fed (control); (B) gavage fed+hypoxic to model necrotizing enterocolitis (NEC); (C) breast fed and treated with 500 μg/kg (approximately 10 μg/animal, intraperitoneally injected) CpG (control); (D) gavage fed+hypoxic to model NEC and treated with 500 μg/kg (approximately 10 μg/animal, intraperitoneally injected) CpG.
(A) Control mice (injected with saline). (B) Mice injected with 5 mg/kg of LPS. (C) Mice injected with 5 mg/kg of LPS and 1 mg/kg of CpG. (D-G) Immunohistochemical staining of terminal ileum from newborn mice that were either breast fed (“control”) or induced to develop NEC (“NEC”). Sections were stained for caspase 3 as a marker of apoptosis and enterocyte loss; positive staining is indicated by a small arrowhead. (D) Control injected with saline. (E) NEC injected with saline. (F) Control injected with 1 mg/kg CpG-DNA daily for four days. (G) NEC injected with 1 mg/kg CpG-DNA daily for four days. (H) Bar graph summarizing results, showing percent apoptosis in terminal ileum as depicted in (D)-(G).
FIG. 20A-I. Newborn mice were either breast fed (“control”) or were induced to develop NEC (“NEC”). (A) Gross micrograph of intestine of a control mouse. (B) Gross micrograph of intestine of a control mouse treated with 1 mg/kg CpG-DNA daily for four days. (C) Gross micrograph of intestine of a NEC mouse. (D) Gross micrograph of intestine of a NEC mouse treated with 1 mg/kg CpG-DNA daily for four days. (E) Micrograph of histological section of intestine of a control mouse. (F) Micrograph of histological section of intestine of a control mouse treated with CpG. (G) Micrograph of histological section of intestine of a NEC mouse. (H) Micrograph of histological section of intestine of a NEC mouse treated with CpG. (I) Summary bar graph of the above results.
FIG. 16 presents a Western blot showing expression of TLR4 and TLR9 in control mice and mice modeling necrotizing enterocolitis (“NEC”). A substantial increase in the level of TLR4, and a decrease in TLR9, was observed. […]

[2] = NEC mice, 1 mg/kg CpG-DNA daily for four days

Q: How did the “relative level of phosphorylated p38 (increase caused by LPS)” value (enterocytes; 50 μg/ml LPS + 10 μM CpG vs LPS alone) turn out when 5′-TCCATGACGTTCCTGACGTT-3′ [CpG-DNA] was run?
A: significantly less

Q: What about the “relative level of phosphorylated ERK (increase caused by LPS)” value (enterocytes; LPS + CpG vs LPS alone) of the same substance?
A: significantly less

Q: What about the “serum IL-6 level” value (murine intestinal mucosa; mice) of the same substance?
A: attenuated

Q: And the “level of phosphorylated ERK (LPS-dependent signaling)” value (murine intestinal mucosa; murine intestinal mucosa)?
A: attenuated

Q: And the “level of phosphorylated p38 (LPS-dependent signaling)” value (murine intestinal mucosa; murine intestinal mucosa)?
A: attenuated

Q: What about the “NEC pathology (gross and histological)” value [1, 2] of the same substance?
A: substantial inhibition of the NEC pathology

Q: What about the “apoptosis in terminal ileum (caspase 3)” value [1, 2] of the same substance?
A: substantially reduced apoptosis

Q: And the “severity of experimental NEC” value ([1]; wild-type TLR4 mice, 500 μg/kg CpG intraperitoneally)?
A: limit the severity of experimental NEC
